Assay results as given in ChEMBL document CHEMBL1201862, “PubChem BioAssay data set” (2004).
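Protocol summary: plate cells (96-well), add compound at 5 concentrations, incubate 48 h, interpolate endpoints linearly. GI50 is the concentration that inhibits growth by half.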 Active and inactive are the calls of the source. Cut-off read from the data, not from the text of the source: active = GI50 up to about 1.1 µM and inactive = higher.

Key:
Assay in all cases: DTP human tumour cell line panel, 48 h
SN12C = test system: SN12C
CAKI-1 = test system: CAKI-1
MDA-MB-231 = test system: MDA-MB-231
CCRF-CEM = test system: CCRF-CEM
MDA-MB-435 = test system: MDA-MB-435
RXF 393 = test system: RXF 393
SK-MEL-5 = test system: SK-MEL-5
SF-539 = test system: SF-539
SW-620 = test system: SW-620
SR = test system: SR
NCI/ADR-RES = test system: NCI/ADR-RES
OVCAR-3 = test system: OVCAR-3
A498 = test system: A498
OVCAR-4 = test system: OVCAR-4
SNB-19 = test system: SNB-19
HOP-62 = test system: HOP-62
M14 = test system: M14
PC-3 = test system: PC-3
SF-268 = test system: SF-268
HCT-15 = test system: HCT-15

Compound	GI50 (SN12C)	GI50 (CAKI-1)	GI50 (MDA-MB-231)	GI50 (CCRF-CEM)	GI50 (MDA-MB-435)	GI50 (RXF 393)	GI50 (SK-MEL-5)	GI50 (SF-539)	GI50 (SW-620)	GI50 (SR)	GI50 (NCI/ADR-RES)	GI50 (OVCAR-3)	GI50 (A498)	GI50 (OVCAR-4)	GI50 (SNB-19)	GI50 (HOP-62)	GI50 (M14)	GI50 (PC-3)	GI50 (SF-268)	GI50 (HCT-15)
ClC1(c2ccccc2)c2ccc(Br)cc2-c2cc(Br)ccc21	18.6 µM (inactive)	14.9 µM (inactive)	16.7 µM (inactive)	34.6 µM (inactive)	13.5 µM (inactive)	18.4 µM (inactive)	15.7 µM (inactive)	18.7 µM (inactive)	19.8 µM (inactive)	32.7 µM (inactive)	18.1 µM (inactive)	16.9 µM (inactive)	18.8 µM (inactive)	14.1 µM (inactive)	16.9 µM (inactive)	19.3 µM (inactive)	14.2 µM (inactive)	17.4 µM (inactive)	18.5 µM (inactive)	16 µM
O=CC(O)C(O)C(O)C(O)COC(=O)NCCCCC(=O)C(F)(F)C(F)(F)C(F)(F)C(F)(F)C(F)(F)C(F)(F)C(F)(F)F (stereo not given)	32.4 µM (inactive)	49.8 µM (inactive)	20 µM (inactive)	18.4 µM (inactive)	24.2 µM (inactive)	18.3 µM (inactive)	23.7 µM (inactive)	19.8 µM (inactive)	19.9 µM (inactive)	28.2 µM (inactive)	> 100 µM (inactive)	47 µM (inactive)	20.7 µM (inactive)	51.8 µM (inactive)	16 µM (inactive)	23.6 µM (inactive)	23.7 µM (inactive)	14.3 µM (inactive)	24.8 µM (inactive)	50.2 µM
c1ccc(C2(c3ccccc3)S/C(=C3/SC(c4ccccc4)(c4ccccc4)c4ccccc43)c3ccccc32)cc1	> 100 µM (inactive)	> 100 µM (inactive)	> 100 µM (inactive)	> 100 µM (inactive)	> 100 µM (inactive)	> 100 µM (inactive)	> 100 µM (inactive)	> 100 µM (inactive)	> 100 µM (inactive)	> 100 µM (inactive)	> 100 µM (inactive)	> 100 µM (inactive)	> 100 µM (inactive)	> 100 µM (inactive)	> 100 µM (inactive)	> 100 µM (inactive)	> 100 µM (inactive)	> 100 µM (inactive)	> 100 µM (inactive)	> 100 µM
Brc1ccc(CCNCCN2CCCCC2)cc1	25.9 µM (inactive)	14.1 µM (inactive)	8.05 µM (inactive)	14.2 µM (inactive)	5.47 µM (inactive)	33.6 µM (inactive)	8.07 µM (inactive)	10.9 µM (inactive)	17 µM (inactive)	> 100 µM (inactive)	21.1 µM (inactive)	15.4 µM (inactive)	18 µM (inactive)	19.3 µM (inactive)	17.3 µM (inactive)	20.4 µM (inactive)	15.6 µM (inactive)	15.6 µM (inactive)	15.5 µM (inactive)	18.1 µM
Cc1cc(C)c(-c2no/c(=N\S(=O)(=O)c3ccc(Cl)cc3)o2)c(C)c1	> 100 µM (inactive)	> 100 µM (inactive)	> 100 µM (inactive)	> 100 µM (inactive)	> 100 µM (inactive)	> 100 µM (inactive)	23.1 µM (inactive)	> 100 µM (inactive)	> 100 µM (inactive)	24.7 µM (inactive)	87.3 µM (inactive)	> 100 µM (inactive)	> 100 µM (inactive)	> 100 µM (inactive)	> 100 µM (inactive)	> 100 µM (inactive)	> 100 µM (inactive)	> 100 µM (inactive)	> 100 µM (inactive)	> 100 µM
COc1nc(C)nc2c1ncn2Cc1ccccc1	> 100 µM (inactive)	66.2 µM (inactive)	> 100 µM (inactive)	> 100 µM (inactive)	> 100 µM (inactive)	> 100 µM (inactive)	> 100 µM (inactive)	> 100 µM (inactive)	> 100 µM (inactive)	> 100 µM (inactive)	> 100 µM (inactive)	> 100 µM (inactive)	> 100 µM (inactive)	> 100 µM (inactive)	> 100 µM (inactive)	> 100 µM (inactive)	> 100 µM (inactive)	> 100 µM (inactive)	57.3 µM (inactive)	> 100 µM
Cc1nn2c(=O)c([N+](=O)[O-])c(/C=C/c3ccccc3)nc2s1	5.27 µM (inactive)	7.78 µM (inactive)	11.5 µM (inactive)	2.21 µM (inactive)	2 µM (inactive)	3.41 µM (inactive)	3.69 µM (inactive)	2.3 µM (inactive)	5.24 µM (inactive)	2.43 µM (inactive)	3.56 µM (inactive)	4.95 µM (inactive)	10.4 µM (inactive)	10.5 µM (inactive)	4.06 µM (inactive)	5.43 µM (inactive)	6.81 µM (inactive)	4.13 µM (inactive)	3.92 µM (inactive)	3.08 µM
COc1ccc(C2C3=C(COC3=O)OC(C)(C)Oc3cc4c(cc32)OCO4)cc1 (stereo not given)	37 µM (inactive)	24.1 µM (inactive)	18.6 µM (inactive)	22.4 µM (inactive)	3.51 µM (inactive)	36.6 µM (inactive)	20.4 µM (inactive)	24.2 µM (inactive)	21.8 µM (inactive)	43.1 µM (inactive)	18.5 µM (inactive)	36.6 µM (inactive)	22.8 µM (inactive)	33.9 µM (inactive)	45.3 µM (inactive)	23.6 µM (inactive)	24.2 µM (inactive)	15.1 µM (inactive)	44.6 µM (inactive)	23.7 µM
C/C(=N/NC(=S)N1CCCCC1)c1ccccc1O	> 31.6 µM (inactive)	> 31.6 µM (inactive)	> 100 µM (inactive)	21.7 µM (inactive)	> 31.6 µM (inactive)	> 31.6 µM (inactive)	60.8 µM (inactive)	> 100 µM (inactive)	> 31.6 µM (inactive)	> 10 µM (inactive)	28.2 µM (inactive)	16.4 µM (inactive)	> 100 µM (inactive)	> 31.6 µM (inactive)	> 31.6 µM (inactive)	> 100 µM (inactive)	> 31.6 µM (inactive)	28.8 µM (inactive)	21.5 µM (inactive)	> 31.6 µM
COc1cccc(N2C(=O)C3c4[nH]c5ccccc5c4C4CCCC4C3C2=O)c1 (stereo not given)	3.01 µM (inactive)	7.16 µM (inactive)	2.25 µM (inactive)	> 10 µM (inactive)	> 10 µM (inactive)	9.04 µM (inactive)	> 10 µM (inactive)	7 µM (inactive)	7.98 µM (inactive)	1.48 µM (inactive)	3.8 µM (inactive)	2.36 µM (inactive)	2.17 µM (inactive)	2.26 µM (inactive)	5.81 µM (inactive)	2.52 µM (inactive)	3.06 µM (inactive)	9.4 µM (inactive)	9.66 µM (inactive)	> 10 µM
COc1ccc2nc3cc([N+](=O)[O-])ccc3c(NNc3ccc(Cl)cc3)c2c1	33.1 µM (inactive)	0.16 µM (active)	19.6 µM (inactive)	22 µM (inactive)	26.1 µM (inactive)	> 39.7 µM (inactive)	14.7 µM (inactive)	37.8 µM (inactive)	12.1 µM (inactive)	12.5 µM (inactive)	32.6 µM (inactive)	2.39 µM (inactive)	0.073 µM (active)	38.5 µM (inactive)	75.7 µM (inactive)	21.8 µM (inactive)	34.7 µM (inactive)	24.8 µM (inactive)	43.5 µM (inactive)	45.5 µM
COc1ccc(CCN2COc3ccc4ccc(=O)oc4c3C2)cc1OC	> 100 µM (inactive)	> 100 µM (inactive)	> 100 µM (inactive)	23.7 µM (inactive)	> 100 µM (inactive)	85.7 µM (inactive)	58.1 µM (inactive)	> 100 µM (inactive)	24.2 µM (inactive)	24.3 µM (inactive)	> 100 µM (inactive)	> 100 µM (inactive)	> 100 µM (inactive)	> 100 µM (inactive)	> 100 µM (inactive)	> 100 µM (inactive)	> 100 µM (inactive)	> 100 µM (inactive)	60.4 µM (inactive)	> 100 µM
c1cc(-c2ccc(-c3nc4ccc(C5=NCCN5)cc4s3)s2)ccc1C1=NCCN1	0.172 µM (active)	1.51 µM (inactive)	0.234 µM (active)	0.0962 µM (active)	0.841 µM (active)	0.152 µM (active)	0.955 µM (active)	0.296 µM (active)	1.02 µM (active)	0.231 µM (active)	5.53 µM (inactive)	0.979 µM (active)	0.719 µM (active)	0.182 µM (active)	0.618 µM (active)	0.187 µM (active)	0.912 µM (active)	0.805 µM (active)	0.214 µM (active)	2.17 µM
COc1cc(/C=C2\CC/C(=C\c3cc(OC)c(O)c(OC)c3)C2=O)cc(OC)c1O	8.32 µM (inactive)	2.72 µM (inactive)	2.14 µM (inactive)	1.85 µM (inactive)	1.39 µM (inactive)	1.72 µM (inactive)	1.95 µM (inactive)	3.61 µM (inactive)	1.88 µM (inactive)	2.88 µM (inactive)	2.79 µM (inactive)	2.2 µM (inactive)	1.01 µM (active)	1.69 µM (inactive)	3.69 µM (inactive)	3.13 µM (inactive)	2.19 µM (inactive)	2.62 µM (inactive)	2.3 µM (inactive)	1.4 µM
